PubChem BioAssay (NCI)
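Where inhibition never reached the appropriate level, the endpoint shown equals the highest concentration tested. Otherwise, values were interpolated linearly from a five-concentration, 48-hour dose response in 96-well plates. Definition used: TGI = concentration required for complete inhibition of growth.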

Columns and labels:
Test in all cases: growth of human tumour cells (NCI), 48 h
SF-268 CNS = tested on: SF-268 CNS
786-0 renal = tested on: 786-0 renal
SK-MEL-5 melanoma = tested on: SK-MEL-5 melanoma
CCRF-CEM leukemia = tested on: CCRF-CEM leukemia
HL-60(TB) leukemia = tested on: HL-60(TB) leukemia
A549 NSCLC = tested on: A549 NSCLC
MCF7 breast = tested on: MCF7 breast
HOP-92 NSCLC = tested on: HOP-92 NSCLC
HCT-15 colon = tested on: HCT-15 colon
SR leukemia = tested on: SR leukemia
A498 renal = tested on: A498 renal
HT29 colon = tested on: HT29 colon
HCT-116 colon = tested on: HCT-116 colon
OVCAR-8 ovarian = tested on: OVCAR-8 ovarian
BT-549 breast = tested on: BT-549 breast
OVCAR-3 ovarian = tested on: OVCAR-3 ovarian
MOLT-4 leukemia = tested on: MOLT-4 leukemia
ACHN renal = tested on: ACHN renal
SNB-19 CNS = tested on: SNB-19 CNS
UACC-62 melanoma = tested on: UACC-62 melanoma

| SMILES | TGI (SF-268 CNS) [µM] | TGI (786-0 renal) [µM] | TGI (SK-MEL-5 melanoma) [µM] | TGI (CCRF-CEM leukemia) [µM] | TGI (HL-60(TB) leukemia) [µM] | TGI (A549 NSCLC) [µM] | TGI (MCF7 breast) [µM] | TGI (HOP-92 NSCLC) [µM] | TGI (HCT-15 colon) [µM] | TGI (SR leukemia) [µM] | TGI (A498 renal) [µM] | TGI (HT29 colon) [µM] | TGI (HCT-116 colon) [µM] | TGI (OVCAR-8 ovarian) [µM] | TGI (BT-549 breast) [µM] | TGI (OVCAR-3 ovarian) [µM] | TGI (MOLT-4 leukemia) [µM] | TGI (ACHN renal) [µM] | TGI (SNB-19 CNS) [µM] | TGI (UACC-62 melanoma) [µM] |
| --- | --- | --- | --- | --- | --- | --- | --- | --- | --- | --- | --- | --- | --- | --- | --- | --- | --- | --- | --- | --- |
| N#CC1N(C(=O)c2ccc(F)cc2)c2ccccc2N1C(=O)c1ccc(F)cc1 | > 100 | > 100 | 63.2 | 87.2 | > 100 | > 100 | > 100 | 68.8 | > 100 | > 100 | > 100 | > 100 | > 100 | > 100 | 77.3 | > 100 | 82.8 | > 100 | > 100 | > 100 |
| CC(C)OC(=O)c1ccc(CCC2=CC(=O)C(Br)=CC2=O)cc1 | 32.3 | 30.2 | 25.7 | 5.06 | 9.25 | > 100 | 35.2 | 24.9 | 29.6 | > 100 | > 85 | 31.8 | 30.6 | 32.8 | 16.8 | 29 | 14 | 27.8 | 29.2 | 31.3 |
| C1OCN2c3nonc3N3COCN4c5nonc5N1C2C43 (stereo not given) | > 100 | > 100 | > 100 | > 100 | > 100 | > 100 | > 100 | > 100 | > 100 | > 100 | > 100 | > 100 | > 100 | > 100 | > 100 | > 100 | > 100 | > 100 | > 100 | > 100 |
| CCCCCC(/C=C/[C@@H]1CC(=O)C[C@H]1O[Si](C)(C)C(C)(C)C)OCOCCOC (stereo not given in full) | 10.5 | 14.3 | 9.33 | > 100 | > 100 | 33.5 | > 43.5 | 6.03 | 15.2 | 6.37 | 18.1 | 10.1 | 13.5 | 18.3 | 11.7 | 11.3 | 4.97 | 8.76 | 12.9 | 7.64 |
| O=C1C=CC2(O[C@@H](Cc3ccccc3)[C@H](Cc3ccccc3)O2)C(SC(=O)c2ccccc2)C1 (stereo not given in full) | 2.44 | 0.399 | 3.16 | 1.15 | 4.82 | 16.1 | 2.12 | 3.05 | 1.71 | 0.807 | 16.2 | 3.08 | 0.375 | 0.549 | 1.11 | 2.24 | 0.651 | 2.43 | 7.28 | 5.04 |
| COc1ccc(N2C(=O)C3c4[nH]c5ccccc5c4C4CCC(C(C)C)CC4C3C2=O)cc1 (stereo not given) | > 100 | > 100 | > 100 | > 100 |  | > 100 | > 100 | > 100 | > 100 | > 100 | > 100 | > 100 | > 100 | > 100 | > 100 | > 100 | > 100 | > 100 | > 100 | > 100 |
| CC(=O)Oc1ccc(OC(Oc2ccccc2)c2ccccc2)cc1 (stereo not given) | > 100 | 57.8 |  | 72.2 | 41.8 | > 100 | 82.2 | 34.9 | > 100 | 54.5 | 43.5 | 87 | 59 | > 100 | 68 | 49.5 | > 100 | 72.1 | 77.5 | 44.6 |
| c1ccc(C(CCN2CCCC2)c2ccccn2)cc1 (stereo not given) | > 100 | > 100 | > 100 |  |  | > 100 | > 100 | > 100 | > 100 | > 100 | > 100 | > 100 | > 100 | > 100 | > 100 |  |  | > 100 | > 100 | > 100 |
| CCOC(OCC)C(CCc1ccccc1)c1c(N)nc(N)[nH]c1=O (stereo not given) | > 100 | > 100 | > 100 | > 100 | > 100 | > 100 | > 100 | 86.8 | > 100 | > 100 | > 100 | > 100 | > 100 | > 100 | > 100 | > 100 | > 100 |  | > 100 | > 100 |
| CC(=O)c1ccc2c(c1)oc(=O)n2CCN(C)C | > 100 | > 100 |  | > 100 | > 100 |  | > 100 |  | > 100 | > 100 | > 100 | > 100 | > 100 | > 100 | > 100 | > 100 | > 100 | > 100 |  | > 100 |
| COc1ccc2[nH]c(C(=O)N3CC(CCl)c4ccc([N+](=O)[O-])cc43)cc2c1 (stereo not given) | > 100 | > 100 | > 100 | > 100 | > 100 | > 100 | > 100 | > 100 | > 100 | > 100 | > 100 | > 100 | > 100 | > 100 | > 100 | > 100 | > 100 | > 100 | > 100 | > 100 |
| Cc1ccccc1NC(=S)N/N=C(/c1ccccc1)c1ccccn1 | 14.8 | 10.8 | 3.93 | 11.6 | 1.24 | 11.8 | 15.3 | 13.2 | 15.8 | > 21.2 | 10.2 | 15.8 | 17.2 | 11.8 | 18.5 | 10.5 | 3.98 | 5.4 | 16.5 | 17.1 |
| COC(=O)C[C@H](COCc1ccccc1)NC(=O)C[C@H](COCc1ccccc1)NC(=O)C[C@H](COCc1ccccc1)NC(=O)OC(C)(C)C | > 100 | 72.9 | > 100 | > 100 | > 100 | > 100 | 28.9 | 73.5 | > 100 | > 100 | 67.1 | > 100 | 67 | > 100 | > 100 | > 100 | > 100 | > 100 | > 100 | > 100 |
| CCCCCCC(CCl)c1sc(-c2csc(CCNC(=O)OC(C)(C)C)n2)nc1C(=O)OC (stereo not given) | 52.4 | 75.9 | 16.1 | > 100 | > 100 | > 100 | 29.5 | 69.7 | 73.5 | > 100 | > 100 | 51.2 | 31.6 | > 100 | 58.3 | 86.8 | 24.2 | 81.6 | > 100 | 38.9 |
| CN(N)C(=O)NCCCl | > 100 | > 100 | > 100 | > 100 | > 100 | > 100 | > 100 | > 100 | > 100 | > 100 | > 100 | > 100 | > 100 |  | > 100 | > 100 | > 100 | > 100 | > 100 | > 100 |
| Cc1nnc(N)nc1/C=C\c1cccs1 | 37.8 | 52.1 |  | 70.8 | 31.7 | > 100 | > 100 | 97.8 | 29.6 | > 100 | 49.7 | 41.4 | 35.5 | 44.5 | > 100 |  | > 100 | 33.1 | > 100 | 49.4 |
| CC[C@@]1(O)C(=O)OCc2c1cc1n(c2=O)Cc2c-1nc1ccccc1c2/C=N\NC(=O)C(N)CS (stereo not given in full) | > 100 | > 100 | 3.9 |  | > 100 | > 100 | > 100 | > 57.1 | > 100 | 1.04 | 23 | > 100 | > 100 | > 100 | > 100 | > 100 | 2.07 |  | > 31.6 | 0.761 |
| O=c1c2cc(-c3ccccc3)cnc2sn1-c1ccc([N+](=O)[O-])cc1 | > 100 | > 100 |  | > 100 | > 100 | > 100 | > 100 | > 100 | > 100 | > 100 | > 100 | > 100 | > 100 | > 100 | > 100 | 60.2 | > 100 | > 100 | > 100 | > 100 |
| C=C1C(=O)[C@]23[C@H](O)[C@H]1CC[C@H]2[C@@]12CO[C@@]3(O)C[C@@H]1C(C)(C)CC[C@@H]2O | 20.9 | > 25 | > 25 | > 25 | > 25 | > 25 | 13.1 | > 25 | 19.6 | > 25 | 20.1 | > 25 | 16.2 | > 25 | 8.33 | > 25 | > 25 | 18.9 | > 25 |  |
| C=CCN1CC2CN=NC2(C#N)C1 (stereo not given) | > 100 | > 100 | > 100 | > 100 | > 100 | > 100 | > 100 |  | > 100 | > 100 | > 100 | > 100 | > 100 | > 100 | > 100 | > 100 | > 100 | > 100 | > 100 | > 100 |
| Cc1ccc(S(=O)(=O)n2cc(-c3cnc(N)c(Br)n3)c3ccccc32)cc1 | > 100 | > 23.3 | 41.4 |  | 6.58 | > 100 | > 45.7 | > 27.5 | > 100 | 10.2 | > 24.8 | 9.57 |  | > 100 | > 100 | > 45.7 | 10.7 | > 89.4 | > 46.1 | > 57.2 |
| O=C(CCc1cc(O)cc(O)c1)NCCc1ccc(O)c(O)c1 | > 100 | > 100 | > 100 | 56.1 |  | > 100 | > 100 | > 100 | > 100 | > 100 | > 100 | > 100 | > 100 | > 100 | > 100 | > 100 | > 100 | > 100 | > 100 | > 100 |
| O=c1c2c([nH]c3cc4c(cc13)OCO4)-c1ccccc1CCC2 | > 50 | > 50 | > 50 | > 50 |  | > 50 | > 50 | > 50 | > 50 | 38.4 | > 50 | > 50 | > 50 | > 50 | > 50 | > 50 | > 50 | > 50 | > 50 | > 50 |
| NCCCCNCCCN | > 100 | > 100 | > 100 |  | > 100 | > 100 | > 100 | > 100 | > 100 | > 100 | > 100 | > 100 | > 100 | > 100 | > 100 | > 100 | > 100 | > 100 | > 100 | > 100 |
| O=C(NCCO)c1c(O)c2ccccc2[nH]c1=O | > 100 | > 100 | > 100 | > 100 | > 100 | > 100 | > 100 | > 100 | > 100 | > 100 | > 100 | > 100 | > 100 | > 100 | > 100 | > 100 | > 100 | > 100 | > 100 |  |
